Assays:
[1] = tested on: hormone-sensitive mouse mammary adenocarcinoma MXT (HS-MXT); assay: In vivo antitumor activity, mouse mammary adenocarcinoma HS-MXT
Method: (§1) 4.—In Vivo Antitumor Activity in Combination With a Cytotoxic Agent
(§2) The tests were carried out on models of:
hormone-sensitive mouse mammary adenocarcinoma MXT (HS-MXT),
(§3) in the presence or absence of cytotoxic agents such as cyclophosphamide, etoposide, doxorubicin or vincristine.
(§4) When the MTD value of a product was determined, its in vivo antitumor activity was characterized at doses of MTD/2, MTD/4 and MTD/8 on the model of mouse mammary adenocarcinoma HS-MXT and on the model of lymphoma P 388.
(§5) In all the examples presented below, irrespective of the model (mammary adenocarcinoma HS-MXT or lymphoma P 388), the control condition is represented by a batch of 9 mice to which is administered for 5 consecutive weeks and at a rate of 5 administrations (Monday, Tuesday, Wednesday, Thursday and Friday) per week a volume of 0.2 ml of physiological saline containing the solvent used to dissolve the various compounds of formulae (I) and (Ia) used.
The following parameters were determined in these tests:
(§6) i)—The survival rate of the mice
(§7) This survival rate was calculated in the form of a ratio T/C:
(§8) This ratio represents the average survival time of the median mouse from the batch of treated mice relative to the average survival time of the median mouse from the batch of control mice. Thus, a molecule induces a significant (P<0.05) increase in the survival of the animals when the index T/C exceeds 130%. Conversely, it has a toxic effect when this value of T/C is less than 70%.
ii)—The tumor growth [lacuna] by measuring the area of the grafted HS-MXT or P 388 tumors twice a week (Monday and Friday). This area is calculated by multiplying the values of the largest two perpendicular axes of the tumor. The value of these axes is measured using a sliding caliper.
The model of hormone-sensitive MXT (HS-MXT) mouse mammary adenocarcinoma grafted onto 4- to 6-week-old B6D2F1/JIco mice is derived from the milk ducts of the mammary gland (Watson C. et al. Cancer Res. 1977; 37: 3344-48).
Compound 1 is administered alone. The first injection of the product is carried out on the seventh day post-grafting (D7) for four consecutive weeks at a rate of 5 injections per week (Monday, Tuesday, Wednesday, Thursday and Friday) and at a dose of 20 mg/kg.
Cyclophosphamide (CPA) is administered alone. The first injection of the product is carried out on the fourteenth day post-grafting (D14) for three consecutive weeks at a rate of 3 injections per week (Monday, Wednesday and Friday) and at a dose of 10 mg/kg.
Compound 1 is co-administered with cyclophosphamide. In this case, the first injection of compound 1 is carried out on the seventh day post-grafting (D7) for four consecutive weeks at a rate of 5 injections per week (Monday, Tuesday, Wednesday, Thursday and Friday) at a dose of 20 mg/kg, and the first injection of cyclophosphamide is carried out on the fourteenth day post-grafting (D14) for three consecutive weeks at a rate of 3 injections per week (Monday, Wednesday and Friday) at a dose of 10 mg/kg.
Etoposide (ETO) is administered alone. The first injection of the product is carried out on the fourteenth day post-grafting (D14) for three consecutive weeks at a rate of 3 injections per week (Monday, Wednesday and Friday) and at a dose of 10 mg/kg.
Doxorubicin (DOX) is administered alone. The first injection of the product is carried out on the fourteenth day post-grafting (D14) for three consecutive weeks at a rate of 3 injections per week (Monday, Wednesday and Friday) and at a dose of 5 mg/kg.
Compound 1 is co-administered with etoposide.

lymphoma P 388 = assay: In vivo antitumor activity, lymphoma P 388; design: species or system mouse; conditions: Table IX; subcutaneous P 388 in CDF1 mice; compound 1 or 20 40 mg/kg 5/week from D5, 5 weeks; VCR 0.63 mg/kg 3/week from D5, 3 weeks
Method: as §1, §2, §3, §4, §5, §6, §7, §8
4- to 6-week-old CDF1 mice are grafted with a piece of P 388 tumor (from a tumor bank maintained in the laboratory) subcutaneously into the right flank on day D0. In order to be under conditions close to clinical reality, we waited until the 5th day post-grafting (D5) before starting the treatment. The reason for this was that, after this period of time, the subcutaneous P 388 tumors are palpable.
Compound 1 is administered alone. The first injection of the product is carried out on the 5th day post-grafting (D5) at a rate of 5 injections per week (Monday, Tuesday, Wednesday, Thursday and Friday) for five consecutive weeks-and at a dose of 40 mg/kg.
Compound 20 is administered alone. […]

[2] = Table V, HS-MXT in B6D2F1/JIco mice, compound 1 20 mg/kg 5/week from D7, 4 weeks, ETO 10 mg/kg or DOX 5 mg/kg 3/week from D14, 3 weeks

Structure (SMILES) | melting point [°C] | T/C (survival) [1, 2] [%] | also measured
O=P1(N(CCCl)CCCl)NCCCO1 (centres unmarked) [CPA, Cyclophosphamide] |  |  | T/C (survival) ([1]; Table IV, HS-MXT in B6D2F1/JIco mice, compound 1 20 mg/kg 5 injections/week from D7, 4 weeks, CPA 10 mg/kg 3 injections/week from D14, 3 weeks): 122%; Tumor area, reduction (−) or increase (+) compared with control ([1]; Table VI, HS-MXT tumors, 31st day after graft, 19 administrations of compound 1 (20 mg/kg), 8 of cyclophosphamide (10 mg/kg)): −23.6%
COc1cc(OC)c2cc(-c3ccc(OS(=O)(=O)C(F)(F)F)cc3)c(=O)n(C)c2c1 [Compound 45] | 144 to 145 |  | 
Cc1ccc2[nH]c(=O)c(-c3ccccc3)cc2c1 [Compound 48, 6-Methyl-3-phenyl-1,2-dihydro-2-quinolinone] | 212 to 213 |  | 
COc1cccc2c1C(=O)c1c(O)c3c(c(O)c1C2=O)C[C@@](O)(C(=O)CO)C[C@@H]3O[C@H]1C[C@H](N)[C@H](O)[C@H](C)O1 [DOX, Doxorubicin] |  | 92.5 | 
COc1cc([C@@H]2c3cc4c(cc3[C@@H](O[C@@H]3O[C@@H]5CO[C@@H](C)O[C@H]5[C@H](O)[C@H]3O)[C@H]3COC(=O)[C@H]23)OCO4)cc(OC)c1O [ETO, Etoposide] |  | 130 | T/C (survival) ([1]; Table VII, HS-MXT, compound 21 40 mg/kg 5/week from D7, 5 weeks, ETO 10 mg/kg 3/week from D7, 3 weeks): 124%
CC[C@]1(O)C[C@H]2CN(CCc3c([nH]c4ccccc34)[C@@](C(=O)OC)(c3cc4c(cc3OC)N(C=O)[C@H]3[C@@](O)(C(=O)OC)[C@H](OC(C)=O)[C@]5(CC)C=CCN6CC[C@]43[C@@H]65)C2)C1 [VCR, Vincristine, reference compound] |  |  | T/C (survival) (lymphoma P 388): 122%
